Test results as given in PubChem BioAssay AID179 (DTP/NCI, 2004).
Activity calls are given as the source filed them.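 How the source made its calls: active means compounds giving half or more protection of infected cells from virus-caused growth loss, again on retest; inactive means the rest.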

Test system: CEM cells HIV-1 protection, formazan growth assay
Test: NCI AIDS Antiviral Assay
Details: for IC50: measured here: growth of uninfected CEM cells
In short: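 Protection of CEM cells against HIV-1 measured as cell growth via soluble formazan read-out, with five concentrations tested on both infected and uninfected cells; failure to protect may reflect toxicity.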

Structure (SMILES) | EC50 | IC50 | outcome
Oc1c([Si](c2ccccc2)(c2ccccc2)c2ccccc2)cc2ccccc2c1-c1c(O)c([Si](c2ccccc2)(c2ccccc2)c2ccccc2)cc2ccccc12 | > 50.1 µM | > 50.1 µM | 
COC(=O)C1[C@H](C(=O)OC)C1(Br)CBr (stereo partly specified) | > 200 µM | 97.7 µM | 
N#C/C(=C\c1ccc(O)c(O)c1)C(=O)NCCN1CCN(C(=O)/C(C#N)=C/c2ccc(O)c(O)c2)CC1 | > 200 µM | 26.3 µM | 
C#CCOCn1cnc2c(N)ncnc21 | > 1230 µM | 692 µM | 
N#Cc1c(O)c(N=Nc2ccc(Cl)cc2)c(=O)n2c1[nH]c1ccccc12 | > 200 µM | 53.7 µM | 
COc1ccc(CCNC(=O)Cc2ccccc2CO)cc1OC | > 200 µM | > 200 µM | 
O=C(O)C12C(=O)NC(=O)C1(C(=O)O)C21CCCCC1 (stereo unspecified) | > 933 µM | > 933 µM | 
CN1OC(C#N)(C#N)C(C#N)(C#N)C1c1ccccc1 (stereo unspecified) | > 200 µM | > 200 µM | 
Nc1nc(N)c(-c2ccc(Cl)c(Cl)c2)c(C[P+](c2ccccc2)(c2ccccc2)c2ccccc2)n1 | > 200 µM | 1.05 µM | 
O=C(NC1=C(Cl)C(=O)c2ccccc2C1=O)C(=O)c1c(O)c2ccccc2oc1=O | > 117 µM | > 117 µM | 
O=C(/N=N/C(=O)N1CCOCC1)N1CCOCC1 | 75.9 µM | 87.1 µM | 
COc1ccc2c(c1)nc1n2C(N)=Nc2ccccc2S1 | > 200 µM | 11.5 µM | 
C=C1CCC2CC1C(C(=O)c1c[nH]c3ccccc13)=NC2(C)C (stereo unspecified) | > 407 µM | > 407 µM | 
CCOC(=O)NC(NCC(O)c1ccccc1)(C(F)(F)F)C(F)(F)F (stereo unspecified) | > 200 µM | 174 µM | 
CC1=NC2C(=O)N(C)C(=O)N(C)C2n2c(O)ccc21 (stereo unspecified) | > 2 µM | > 2 µM | 
COc1ccc(NC(=O)C(=O)/C=C(\O)c2ccccc2)cc1 | > 200 µM | 9.33 µM | 
CC(CC12CCC3(OO1)C(C)(C)CCCC3(C)O2)OC(=O)c1ccccc1 (stereo unspecified) | > 200 µM | 18.2 µM | 
CC(=O)NC1C(OCC(=O)NCCNc2ccc([N+](=O)[O-])c3[nH]c4ccccc4c(=O)c23)C(O)C(CO)OC1(C)OCc1ccccc1 (stereo unspecified) | > 200 µM | > 200 µM | 
C[C@@H](NC(=O)c1ccccc1SC(=O)OCC[n+]1ccccc1)C(N)=O | 2.82 µM | > 200 µM | 
Cc1ccc(S(=O)(=O)N(C)C)cc1NC1=NCCO1 | > 200 µM | > 200 µM | 
O=C(O)/C=C\Sc1ccccc1C(=O)O | > 1120 µM | > 1120 µM | 
CC(C)(C)n1[nH]c(=O)n(C(C)(C)C)c1=O | > 200 µM | > 200 µM | 

Structure (SMILES) | EC50 | IC50 | outcome
N[C@H](C(=O)O)[C@@H](Cl)CC(=O)O |  |  | inactive
CCOC(=O)c1sc2nc(SC)nc(N3CCCCC3)c2c1N | > 100 µM | > 100 µM | 
CCSC(CCCC1OCC2OC(n3cc(C)c(=O)[nH]c3=O)CC2N1O)SCC (stereo unspecified) | > 200 µM | 135 µM | 
CNc1ncc(-c2nnnn2-c2ccccc2)c(CN(C)C)n1 | > 200 µM | > 200 µM | 
CN(C)CC(/C(Cc1ccccc1)=N\NC(=S)NN)c1ccccc1 (stereo unspecified) | > 35.5 µM | > 35.5 µM | 
OC1CC2CCC(C1)S2 (stereo unspecified) | > 200 µM | > 200 µM | 
Cc1cccc(NC(=O)CC(=O)N2N=C(N(CCC#N)c3ccccc3Cl)CC2c2ccccc2)c1 (stereo unspecified) | > 186 µM | > 186 µM | 
O=C1CCCC(=O)NNC(=O)NCCCCCCNC(=O)NN1 | > 30.2 µM | > 30.2 µM | 
OCC1OC(n2cnc3cncnc32)CC1O (stereo unspecified) |  |  | inactive
O=c1c2ccccc2c(=O)n2n1-c1cccc(c1)CSSCc1cccc-2c1 |  |  | inactive
Oc1c(Cl)ccc2cccnc12 | > 20 µM | 0.676 µM | 
CC(C)CC(C(N)=O)C(=O)NC(Cc1ccccc1)NC(=O)CNC(=O)C(C)NC(=O)C(N)Cc1ccc(O)cc1 (stereo unspecified) | > 200 µM | > 200 µM | 
CC(C)=CCCC(C)CCN(O)CC(CO)OC(CO)n1cc(C)c(=O)[nH]c1=O (stereo unspecified) | > 200 µM | 135 µM | 
Cc1nc2cc(C(=O)NC=O)c3n[nH]nc3c2n1C | > 200 µM | > 200 µM | 
CC(C)[Si](OCC/C=C/C1CCC(=O)C1C(O)C1CCCCC1)(C(C)C)C(C)C (stereo unspecified) |  |  | inactive
C=CC(C)(C)N[C@@H](C(=O)N1CCC[C@H]1c1nc(-c2nc(C(=O)OCC=C(C)C)c(C)o2)c(C)o1)C(C)C | > 200 µM | 58.9 µM | 
CCCCCCCCCCCCCC(=O)NCC(OCC)OCC |  |  | inactive
CCOC(=O)c1c2ccccc2n2c(=O)n(-c3ccccc3)nnc12 | > 200 µM | 35.5 µM | 
CC12CC(c3ccccc3N1)C1CC2(C)Nc2ccccc21 | > 64.6 µM | > 64.6 µM | 
NC(=O)N/N=C1/C2CC3CC(C2)C1C3 (stereo unspecified) | > 200 µM | > 200 µM | 
CC[C@]1(O)CC[C@H]2[C@@H]3CCC4=CC(=O)CC[C@@H]4[C@H]3CC[C@@]21CC | > 200 µM | 49 µM | 
